# Data: US20210070748A1, “INHIBITORS OF BRUTONS TYROSINE KINASE” (Pharmacyclics LLC, priority 2015, published 2021)
# Legend:
# Assay type in all cases: biochemical
# BTK-WT = molecular target: T1, BTK-WT (Homo sapiens, UniProt Q06187); assay: Btk in vitro inhibitory activity (one of Method A TR-FRET, Method B electrophoretic mobility shift, Method C radiometric filter binding); conditions: D-compounds panel data; read-out: IC50 BTK-WT
# T1 construct: purified from insect cells as a full-length construct containing an N-terminal 6X-His tag; His6 (N); made in house; host or cells: insect cells (baculovirus Sf21 in Method B)
# SRC = SRC (Homo sapiens, UniProt P12931); assay: Inhibition of a panel of kinases, in vitro HotSpot kinase assay: SRC; conditions: D-compounds panel data; 1 μM ATP
# Procedure: (§1) The degree of inhibition of a panel of kinases is determined using the in vitro HotSpot kinase assay (purified enzymes, ^33P-ATP, an appropriate substrate and 1 μM ATP).
# ITK = molecular target: T2, ITK (Homo sapiens, UniProt Q08881); assay: Inhibition of a panel of kinases, in vitro HotSpot kinase assay: ITK; conditions: D-compounds panel data; 1 μM ATP
# T2 sequence (Q08881 1-620): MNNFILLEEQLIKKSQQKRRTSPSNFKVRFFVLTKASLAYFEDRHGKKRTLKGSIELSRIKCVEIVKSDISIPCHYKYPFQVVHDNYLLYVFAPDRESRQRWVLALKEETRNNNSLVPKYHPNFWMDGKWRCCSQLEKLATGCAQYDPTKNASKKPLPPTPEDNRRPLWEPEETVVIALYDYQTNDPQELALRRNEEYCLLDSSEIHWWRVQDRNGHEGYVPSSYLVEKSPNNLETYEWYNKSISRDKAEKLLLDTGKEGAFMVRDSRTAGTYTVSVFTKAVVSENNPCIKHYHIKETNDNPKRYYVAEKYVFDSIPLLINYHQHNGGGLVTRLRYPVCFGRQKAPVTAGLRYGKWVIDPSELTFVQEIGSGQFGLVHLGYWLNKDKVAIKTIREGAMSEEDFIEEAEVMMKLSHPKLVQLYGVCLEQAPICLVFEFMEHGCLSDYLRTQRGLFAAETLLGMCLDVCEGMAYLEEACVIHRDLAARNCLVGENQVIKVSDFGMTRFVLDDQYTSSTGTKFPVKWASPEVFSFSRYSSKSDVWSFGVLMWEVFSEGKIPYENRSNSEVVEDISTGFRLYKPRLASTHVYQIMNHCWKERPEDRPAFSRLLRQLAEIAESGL
# Procedure: as §1
# Chain of SRC (P12931 whole entry): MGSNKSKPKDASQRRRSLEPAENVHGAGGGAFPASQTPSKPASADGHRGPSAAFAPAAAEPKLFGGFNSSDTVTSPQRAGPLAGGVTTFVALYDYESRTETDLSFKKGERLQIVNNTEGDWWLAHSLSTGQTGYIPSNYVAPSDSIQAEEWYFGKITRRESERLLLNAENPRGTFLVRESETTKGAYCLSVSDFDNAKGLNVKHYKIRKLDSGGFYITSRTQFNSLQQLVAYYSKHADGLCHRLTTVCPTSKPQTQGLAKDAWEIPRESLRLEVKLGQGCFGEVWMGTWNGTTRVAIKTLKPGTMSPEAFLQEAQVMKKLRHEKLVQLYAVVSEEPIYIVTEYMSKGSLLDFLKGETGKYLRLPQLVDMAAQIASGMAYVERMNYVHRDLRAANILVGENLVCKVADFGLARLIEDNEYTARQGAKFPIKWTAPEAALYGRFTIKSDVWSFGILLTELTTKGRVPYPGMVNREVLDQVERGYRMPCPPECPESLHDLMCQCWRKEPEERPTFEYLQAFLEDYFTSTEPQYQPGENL
# T1 sequence (Q06187 whole entry): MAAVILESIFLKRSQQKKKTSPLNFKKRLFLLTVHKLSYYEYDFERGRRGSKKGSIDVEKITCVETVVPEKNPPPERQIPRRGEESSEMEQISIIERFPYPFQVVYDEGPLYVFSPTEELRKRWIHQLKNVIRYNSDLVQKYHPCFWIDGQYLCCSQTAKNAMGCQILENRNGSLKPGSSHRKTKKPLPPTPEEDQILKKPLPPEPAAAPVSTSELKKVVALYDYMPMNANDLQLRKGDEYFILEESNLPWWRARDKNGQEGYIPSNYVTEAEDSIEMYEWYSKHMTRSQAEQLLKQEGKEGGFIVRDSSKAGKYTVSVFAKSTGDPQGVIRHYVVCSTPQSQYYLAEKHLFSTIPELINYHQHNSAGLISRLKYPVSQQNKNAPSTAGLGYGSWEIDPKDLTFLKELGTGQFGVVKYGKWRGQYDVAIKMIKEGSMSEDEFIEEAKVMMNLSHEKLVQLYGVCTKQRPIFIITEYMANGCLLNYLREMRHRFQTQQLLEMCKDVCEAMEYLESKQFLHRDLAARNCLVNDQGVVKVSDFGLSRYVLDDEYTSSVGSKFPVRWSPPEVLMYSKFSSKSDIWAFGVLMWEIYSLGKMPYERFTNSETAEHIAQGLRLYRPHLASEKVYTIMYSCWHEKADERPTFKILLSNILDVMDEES
IC50 (BTK-WT) [nM],IC50 (SRC) [nM],IC50 (ITK) [nM],SMILES
≤ 10,10 to 100,100 to 1000,"C[C@@H]1[C@H](NC(=O)c2ccc(C(C)(O)C(F)(F)F)cc2)CCCN1c1cnc(C(N)=O)c(Nc2cnn(C)c2)n1 (single isomer, unassigned) [Example D-213]"
≤ 10,10 to 100,100 to 1000,"C[C@@H]1[C@H](NC(=O)c2ccc(C(C)(O)C(F)(F)F)cc2)CCCN1c1cnc(C(N)=O)c(Nc2cnn(C)c2)n1 (single isomer, unassigned) [Example D-214]"
≤ 10,100 to 1000,1000 to 10000,"Cn1cc(Nc2nc(N3CC(NC(=O)c4ccc(C5CC5)cc4)CC(F)(F)C3)cnc2C(N)=O)cn1 (stereo in doubt) [Example D-190, 5-[(5S)-5-(4-cyclopropylbenzamido)-3,3-difluoropiperidin-1-yl]-3-[(1-methyl-1H-pyrazol-4-yl)amino]pyrazine-2-carboxamide]"
≤ 10,10 to 100,100 to 1000,"C[C@@H]1[C@H](NC(=O)c2ccc(C3CC3)nc2)CCCN1c1cnc(C(N)=O)c(Nc2cnn(C)c2)n1 [Example D-18, 5-[(2R,3R)-3-(6-cyclopropylpyridine-3-amido)-2-methylpiperidin-1-yl]-3-[(1-methyl-1H-pyrazol-4-yl)amino]pyrazine-2-carboxamide]"
≤ 10,100 to 1000,100 to 1000,"CN1CCN(C(=O)c2ccc(Nc3nc(N4CCC[C@@H](n5ccc6cc(C7CC7)ccc6c5=O)C4)cnc3C(N)=O)cc2)CC1 [Example D-169, 5-[(3R)-3-(6-cyclopropyl-1-oxo-1,2-dihydroisoquinolin-2-yl)piperidin-1-yl]-3-{[4-(4-methylpiperazine-1-carbonyl)phenyl]amino}pyrazine-2-carboxamide]"
10 to 100,100 to 1000,> 10000,"C/C=C/c1ccc(C(=O)N[C@@H]2CCCN(c3cnc(C(N)=O)c(Nc4cc(C)ns4)c3)[C@@H]2C)c(F)c1 [Example D-170, 5-[(2R,3R)-3-{2-fluoro-4-[(1E)-prop-1-en-1-yl]benzamido}-2-methylpiperidin-1-yl]-3-[(3-methyl-1,2-thiazol-5-yl)amino]pyridine-2-carboxamide]"
10 to 100,100 to 1000,> 10000,"Cc1cc(Nc2nc(N3CCC[C@@H](c4ncc(-c5ccccc5)[nH]4)C3)cnc2C(N)=O)sn1 [Example D-171, 3-[(3-methyl-1,2-thiazol-5-yl)amino]-5-[(3R)-3-(5-phenyl-1H-imidazol-2-yl)piperidin-1-yl]pyrazine-2-carboxamide]"
10 to 100,100 to 1000,> 10000,"Cc1cc(Nc2nc(N3CCC[C@H](c4ncc(-c5ccccc5)[nH]4)C3)cnc2C(N)=O)sn1 [Example D-172, 3-[(3-methyl-1,2-thiazol-5-yl)amino]-5-[(3S)-3-(5-phenyl-1H-imidazol-2-yl)piperidin-1-yl]pyrazine-2-carboxamide]"
≤ 10,10 to 100,100 to 1000,"C[C@@H]1[C@H](NC(=O)c2ccc(C3CC3)cc2F)CCCN1c1cnc(C(N)=O)c(Nc2cc(CN3CCOCC3)ns2)n1 [Example D-173, 5-[(2R,3R)-3-(4-cyclopropyl-2-fluorobenzamido)-2-methylpiperidin-1-yl]-3-{[3-(morpholin-4-ylmethyl)-1,2-thiazol-5-yl]amino}pyrazine-2-carboxamide]"
≤ 10,10 to 100,100 to 1000,"CN1CCN(c2ccc(Nc3nc(N4CCC[C@@H](n5ccc6cc(C7CC7)cc(F)c6c5=O)C4)cnc3C(N)=O)cc2)CC1 [Example D-174, 5-[(3R)-3-(6-cyclopropyl-8-fluoro-1-oxo-1,2-dihydroisoquinolin-2-yl)piperidin-1-yl]-3-{[4-(4-methylpiperazin-1-yl)phenyl]amino}pyrazine-2-carboxamide]"
10 to 100,100 to 1000,1000 to 10000,"Cc1cc(Nc2cc(N3CCC[C@@H](NC(=O)N(C)C)[C@H]3C)cnc2C(N)=O)sn1 [Example D-175, 5-[(2R,3R)-3-[(dimethylcarbamoyl)amino]-2-methylpiperidin-1-yl]-3-[(3-methyl-1,2-thiazol-5-yl)amino]pyridine-2-carboxamide]"
≤ 10,10 to 100,100 to 1000,"C[C@@H]1[C@H](NC(=O)c2ccc(C3CC3)cc2F)CCCN1c1cnc(C(N)=O)c(Nc2cc(CN3CCCCC3)ns2)n1 [Example D-176, 5-[(2R,3R)-3-(4-cyclopropyl-2-fluorobenzamido)-2-methylpiperidin-1-yl]-3-{[3-(piperidin-1-ylmethyl)-1,2-thiazol-5-yl]amino}pyrazine-2-carboxamide]"

# Continued, compound first:
SMILES,IC50 (BTK-WT) [nM],IC50 (SRC) [nM],IC50 (ITK) [nM]
"Cn1cc(Nc2nc(N3C4CCC(NC(=O)c5ccc(C6CC6)cc5)C3CC4)cnc2C(N)=O)cn1 (single isomer, unassigned) [Example D-199, 5-[2-(4-cyclopropylbenzamido)-8-azabicyclo[3.2.1]octan-8-yl]-3-[(1-methyl-1H-pyrazol-4-yl)amino]pyrazine-2-carboxamide]",1000 to 10000,1000 to 10000,> 10000
"Cn1cc(Nc2nc(N3C4CCC(NC(=O)c5ccc(C6CC6)cc5)C3CC4)cnc2C(N)=O)cn1 (single isomer, unassigned) [Example D-200, 5-[2-(4-cyclopropylbenzamido)-8-azabicyclo[32.1]octan-8-yl]-3-[(1-methyl-1H-pyrazol-4-yl)amino]pyrazine-2-carboxamide]",100 to 1000,1000 to 10000,> 10000
"Cn1cc(Nc2nc(N3C4CCC(NC(=O)c5ccc(C6CC6)cc5)C3CC4)cnc2C(N)=O)cn1 (single isomer, unassigned) [Example D-201, 5-[2-(4-cyclopropylbenzamido)-8-azabicyclo[3.2.1]octan-8-yl]-3-[(1-methyl-1H-pyrazol-4-yl)amino]pyrazine-2-carboxamide]",≤ 10,10 to 100,1000 to 10000
"Cn1cc(Nc2nc(N3C4CCC(NC(=O)c5ccc(C6CC6)cc5)C3CC4)cnc2C(N)=O)cn1 (single isomer, unassigned) [Example D-202, 5-[2-(4-cyclopropylbenzamido)-8-azabicyclo[3.2. I]octan-8-yl]-3-[(1-methyl-1H-pyrazol-4-yl)amino]pyrazine-2-carboxamide]",10 to 100,100 to 1000,1000 to 10000
"C[C@@H]1[C@H](NC(=O)c2ccc(C3CC3)cc2F)CCCN1c1cnc(C(N)=O)c(Nc2ccc(N3CCN(C)C[C@@H]3C)cc2)n1 [Example D-12, 5-[(2R,3R)-3-(4-cyclopropyl-2-fluorobenzamido)-2-methylpiperidin-1-yl]-3-({4-[(2S)-2,4-dimethylpiperazin-1-yl]phenyl}amino)pyrazine-2-carboxamide]",≤ 10,100 to 1000,100 to 1000
"C[C@@H]1[C@H](NC(=O)c2ccc(C3CC3)cc2F)CCCN1c1cnc(C(N)=O)c(Nc2ccc(N3CCN(C)CC3)nc2)n1 [Example D-13, 5-[(2R,3R)-3-(4-cyclopropyl-2-fluorobenzamido)-2-methylpiperidin-1-yl]-3-{[6-(4-methylpiperazin-1-yl)pyridin-3-yl]amino}pyrazine-2-carboxamide]",≤ 10,100 to 1000,1000 to 10000
"C[C@@H]1[C@H](NC(=O)c2ccc(C(C)(C)C)cc2)CCCN1c1cnc(C(N)=O)c(Nc2ccc(N3CCN(C)CC3)cc2)n1 [Example D-14, 5-[(2R,3R)-3-(4-tert-butylbenzamido)-2-methylpiperidin-1-yl]-3-{[4-(4-methylpiperazin-1-yl)phenyl]amino}pyrazine-2-carboxamide]",≤ 10,10 to 100,100 to 1000
"Cc1cc(Nc2nc(N3CCC[C@@H](NC(=O)N4Cc5ccccc5C4=O)C3)cnc2C(N)=O)sn1 [Example D-15, N-[(3R)-1-{5-carbamoyl-6-[(3-methyl-1,2-thiazol-5-yl)amino]pyrazin-2-yl}piperidin-3-yl]-1-oxo-2,3-dihydro-1H-isoindole-2-carboxamide]",≤ 10,10 to 100,10 to 100
"C[C@@H]1[C@H](NC(=O)c2ccc(C3CC3)cc2Cl)CCCN1c1cnc(C(N)=O)c(Nc2ccc(N3CCN(C)CC3)cc2)n1 [Example D-16, 5-[(2R,3R)-3-(2-chloro-4-cyclopropylbenzamido)-2-methylpiperidin-1-yl]-3-{[4-(4-methylpiperazin-1-yl)phenyl]amino}pyrazine-2-carboxamide]",≤ 10,100 to 1000,100 to 1000
"C[C@@H]1[C@H](NC(=O)c2ccc(C3CC3)c(Cl)c2)CCCN1c1cnc(C(N)=O)c(Nc2ccc(N3CCN(C)CC3)cc2)n1 [Example D-17, 5-[(2R,3R)-3-(3-chloro-4-cyclopropylbenzamido)-2-methylpiperidin-1-yl]-3-{[4-(4-methylpiperazin-1-yl)phenyl]amino}pyrazine-2-carboxamide]",≤ 10,100 to 1000,100 to 1000
